From ChEMBL document CHEMBL4421727, “Small molecule inhibitors of 8-oxoguanine dna glycosylase-1 (ogg1)” (2017)
The source made the active and inactive calls. No cut-off for these calls is given here.

What was measured:
Endonuclease 8-like 1 [1] = molecular target: T1, Endonuclease 8-like 1 (Homo sapiens, UniProt Q96FI4); assay: Inhibition of NEIL1 (unknown origin) assessed as remaining enzyme activity at 50 uM using Sp/Gh substrate incubated for 40 mins by TAMRA fluorescence-based assay
[2] = molecular target: T2, Endonuclease III-like protein 1 (Homo sapiens) (UniProt P78549); assay: Inhibition of NTH1 (unknown origin) assessed as remaining enzyme activity at 50 uM incubated for 40 mins by TAMRA fluorescence-based assay
T2 sequence (whole entry): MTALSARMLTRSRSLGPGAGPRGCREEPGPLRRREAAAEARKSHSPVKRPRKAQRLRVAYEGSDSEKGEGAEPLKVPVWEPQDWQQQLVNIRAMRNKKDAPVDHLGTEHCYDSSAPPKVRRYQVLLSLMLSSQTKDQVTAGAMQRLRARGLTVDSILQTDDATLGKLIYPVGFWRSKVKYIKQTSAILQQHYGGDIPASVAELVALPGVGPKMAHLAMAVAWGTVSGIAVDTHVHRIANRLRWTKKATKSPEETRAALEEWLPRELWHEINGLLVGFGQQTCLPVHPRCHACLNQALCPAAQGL

[3] = Binding affinity to duplex DNA (unknown origin) assessed as induction of DNA intercalation at 50 uM incubated for 30 mins by gel electrophoresis
[4] = molecular target: T3, Formamidopyrimidine-DNA glycosylase (Escherichia coli (strain K12)) (UniProt P05523); assay: Inhibition of Escherichia coli FPG assessed as remaining enzyme activity at 50 uM using 8-oxo-Gua substrate incubated for 10 mins by TAMRA fluorescence-based assay
T3 sequence (whole entry): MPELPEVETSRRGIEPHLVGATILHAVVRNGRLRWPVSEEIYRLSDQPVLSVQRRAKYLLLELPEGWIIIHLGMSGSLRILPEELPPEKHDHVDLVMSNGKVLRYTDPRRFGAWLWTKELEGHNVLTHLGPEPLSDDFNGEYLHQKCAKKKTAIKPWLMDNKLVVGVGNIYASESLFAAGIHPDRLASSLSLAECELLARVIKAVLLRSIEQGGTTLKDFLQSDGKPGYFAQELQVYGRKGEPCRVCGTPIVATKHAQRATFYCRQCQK

N-glycosylase/DNA lyase [5] = molecular target: T4, N-glycosylase/DNA lyase (Homo sapiens, UniProt O15527); assay: Inhibition of human OGG1 assessed as reduction in AP lyase activity using AP-containing substrate
T4 sequence (O15527 whole entry): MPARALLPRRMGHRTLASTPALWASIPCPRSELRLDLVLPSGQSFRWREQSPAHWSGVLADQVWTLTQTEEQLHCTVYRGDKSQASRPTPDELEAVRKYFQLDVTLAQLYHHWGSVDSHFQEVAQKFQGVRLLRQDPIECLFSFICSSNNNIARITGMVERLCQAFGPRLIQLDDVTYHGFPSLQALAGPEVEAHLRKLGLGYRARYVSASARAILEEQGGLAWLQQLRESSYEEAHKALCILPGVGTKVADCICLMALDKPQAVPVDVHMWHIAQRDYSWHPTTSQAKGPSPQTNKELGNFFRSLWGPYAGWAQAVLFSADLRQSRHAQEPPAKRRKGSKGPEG

N-glycosylase/DNA lyase [6] = molecular target: T4, N-glycosylase/DNA lyase; assay: Inhibition of human OGG1 assessed as reduction in free 8-oxo-Gua release using gamma-irradiated calf thymus DNA substrate incubated for 1 hr by GC-MS/MS assay
N-glycosylase/DNA lyase [7] = molecular target: T4, N-glycosylase/DNA lyase; assay: Inhibition of human OGG1 assessed as reduction in free Inhibition of human OGG1 assessed as reduction in free FapyGua release using gamma-irradiated calf thymus DNA substrate incubated for 1 hr by GC-MS/MS assay
Endonuclease 8-like 1 [8] = molecular target: T1, Endonuclease 8-like 1; assay: Inhibition of NEIL1 (unknown origin) using Sp/Gh substrate incubated for 40 mins by TAMRA fluorescence-based assay
[9] = molecular target: T5, Endonuclease III-like protein 1 (Homo sapiens, UniProt P78549); assay: Inhibition of NTH1 (unknown origin) incubated for 40 mins by TAMRA fluorescence-based assay
T5 sequence (P78549 whole entry): T2 sequence (whole entry)

[10] = molecular target: T6, Formamidopyrimidine-DNA glycosylase (Escherichia coli (strain K12), UniProt P05523); assay: Inhibition of Escherichia coli FPG using 8-oxo-Gua substrate incubated for 10 mins by TAMRA fluorescence-based assay
T6 sequence (P05523 whole entry): T3 sequence (whole entry)

Homo sapiens [11] = organism: Homo sapiens; assay: Selectivity index, ratio of IC50 for inhibition of NEIL1 (unknown origin) using Sp/Gh substrate incubated for 40 mins by TAMRA fluorescence-based assay to IC50 for inhibition of human OGG1 incubated for 30 mins using 8-oxo-Gua-containing substrate by TAMRA fluorescence-based assay
Homo sapiens [12] = organism: Homo sapiens; assay: Selectivity index, ratio of IC50 for inhibition of NTH1 (unknown origin) incubated for 40 mins by TAMRA fluorescence-based assay to IC50 for inhibition of human OGG1 incubated for 30 mins using 8-oxo-Gua-containing substrate by TAMRA fluorescence-based assay
[13] = Selectivity index, ratio of IC50 for inhibition of Escherichia coli FPG using 8-oxo-Gua substrate incubated for 10 mins by TAMRA fluorescence-based assay to IC50 for inhibition of human OGG1 incubated for 30 mins using 8-oxo-Gua-containing substrate by TAMRA fluorescence-based assay
Endonuclease 8-like 1 [14] = molecular target: T1, Endonuclease 8-like 1; assay: Inhibition of NEIL1 (unknown origin) assessed as effect on DNA lesions per 10^6 DNA bases using FapyAde substrate incubated for 1 hr by GC-MS/MS assay
Endonuclease 8-like 1 [15] = molecular target: T1, Endonuclease 8-like 1; assay: Inhibition of NEIL1 (unknown origin) assessed as effect on DNA lesions per 10^6 DNA bases using FapyGua substrate incubated for 1 hr by GC-MS/MS assay
Endonuclease 8-like 1 [16] = molecular target: T1, Endonuclease 8-like 1; assay: Inhibition of NEIL1 (unknown origin) assessed as effect on DNA lesions per 10^6 DNA bases using 5-OH-5-MeHyd substrate incubated for 1 hr by GC-MS/MS assay
[17] = molecular target: T2, Endonuclease III-like protein 1 (Homo sapiens); assay: Inhibition of NTH1 (unknown origin) assessed as effect on DNA lesions per 10^6 DNA bases using FapyAde substrate incubated for 1 hr by GC-MS/MS assay
[18] = molecular target: T2, Endonuclease III-like protein 1 (Homo sapiens); assay: Inhibition of NTH1 (unknown origin) assessed as effect on DNA lesions per 10^6 DNA bases using FapyGua substrate incubated for 1 hr by GC-MS/MS assay
[19] = molecular target: T2, Endonuclease III-like protein 1 (Homo sapiens); assay: Inhibition of NTH1 (unknown origin) assessed as effect on DNA lesions per 10^6 DNA bases using 5-OH-5-MeHyd substrate incubated for 1 hr by GC-MS/MS assay
[20] = molecular target: T2, Endonuclease III-like protein 1 (Homo sapiens); assay: Inhibition of NTH1 (unknown origin) assessed as effect on DNA lesions per 10^6 DNA bases using thymine glycol substrate incubated for 1 hr by GC-MS/MS assay
[21] = molecular target: T2, Endonuclease III-like protein 1 (Homo sapiens); assay: Inhibition of NTH1 (unknown origin) assessed as effect on DNA lesions per 10^6 DNA bases using 5-hydroxycytosine substrate incubated for 1 hr by GC-MS/MS assay
N-glycosylase/DNA lyase [22] = molecular target: T4, N-glycosylase/DNA lyase; assay: Inhibition of human OGG1 assessed as protection against NaOH-mediated strand cleavage using AP-containing substrate; set-up: scale not given: the % may be the effect or the level left
[23] = molecular target: T3, Formamidopyrimidine-DNA glycosylase (Escherichia coli (strain K12)); assay: Inhibition of Escherichia coli FPG assessed as reduction in enzyme-mediated incision using compound pre-incubated with 8-oxo-Gua substrate for 30 mins at 37 degC followed by enzyme addition
[24] = molecular target: T3, Formamidopyrimidine-DNA glycosylase (Escherichia coli (strain K12)); assay: Inhibition of Escherichia coli FPG assessed as reduction in enzyme-mediated incision using compound pre-incubated with AP-site containing DNA substrate for 30 mins at 37 degC followed by enzyme addition
N-glycosylase/DNA lyase [25] = molecular target: T4, N-glycosylase/DNA lyase; assay: Inhibition of human OGG1 binding to 8-oxo-Gua substrate using compound pre-incubated with enzyme for 5 to 10 mins before substrate addition and further incubated for 5 mins by native gel electrophoresis based by gel-shift assay
N-glycosylase/DNA lyase [26] = molecular target: T4, N-glycosylase/DNA lyase; assay: Inhibition of human OGG1 catalytic activity assessed as reduction trapping of substrates at 10 uM using 8-oxo-Gua substrate in presence of sodium cyno-borohydride by gel electrophoresis method
N-glycosylase/DNA lyase [27] = molecular target: T4, N-glycosylase/DNA lyase; assay: Inhibition of human OGG1 catalytic activity assessed as reduction trapping of substrates at 10 uM using AP site containing substrate in presence of sodium cyno-borohydride by gel electrophoresis method
N-glycosylase/DNA lyase [28] = molecular target: T4, N-glycosylase/DNA lyase; assay: Inhibition of human OGG1 catalytic activity assessed as reduction trapping of substrates using 8-oxo-Gua substrate by measuring concentration of compound needed to reduce borohydride trapping by 50% in presence of sodium cyno-borohydride by gel electrophoresis method
N-glycosylase/DNA lyase [29] = molecular target: T4, N-glycosylase/DNA lyase; assay: Inhibition of human OGG1 catalytic activity assessed as reduction trapping of substrates using AP site containing substrate by measuring concentration of compound needed to reduce borohydride trapping by 50% in presence of sodium cyno-borohydride by gel electrophoresis method

T1 sequence (Q96FI4 whole entry): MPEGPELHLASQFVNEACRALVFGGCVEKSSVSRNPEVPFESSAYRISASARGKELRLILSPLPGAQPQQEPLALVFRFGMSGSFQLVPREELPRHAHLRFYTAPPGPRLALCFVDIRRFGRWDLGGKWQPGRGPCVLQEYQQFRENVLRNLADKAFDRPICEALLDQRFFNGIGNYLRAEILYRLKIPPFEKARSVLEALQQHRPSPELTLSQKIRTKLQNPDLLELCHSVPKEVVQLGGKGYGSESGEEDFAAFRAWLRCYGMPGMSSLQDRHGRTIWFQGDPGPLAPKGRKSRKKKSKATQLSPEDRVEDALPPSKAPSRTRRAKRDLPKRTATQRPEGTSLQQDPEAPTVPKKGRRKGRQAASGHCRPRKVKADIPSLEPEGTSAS

| Activity (Endonuclease 8-like 1 [1]) [%] | Activity [2] [%] | Activity [3] | Activity [4] [%] | IC50 (Endonuclease 8-like 1 [8]) [µM] | IC50 [9] [µM] | IC50 [10] [µM] | inhibition (Endonuclease 8-like 1 [14]) | inhibition (Endonuclease 8-like 1 [15]) | inhibition (Endonuclease 8-like 1 [16]) | inhibition [17] | inhibition [18] | inhibition [19] | inhibition [20] | inhibition [21] | inhibition [23] | inhibition [24] | Structure (SMILES) | further results |
| --- | --- | --- | --- | --- | --- | --- | --- | --- | --- | --- | --- | --- | --- | --- | --- | --- | --- | --- |
| 91.2 | 96.1 | inactive | – | – | – | – | – | – | – | – | – | – | – | – | – | – | CCCN1CCC(=NNC(=O)c2ccc(Cl)cc2Cl)CC1 | – |
| 87.4 | 83 | inactive | 77 | > 50 | > 50 | > 50 | inactive | inactive | inactive | inactive | inactive | inactive | inactive | inactive | inactive | inactive | O=C(NN=C1CCCCC1)c1cc2ccccc2cc1O | inhibition (N-glycosylase/DNA lyase [5]): Active; inhibition (N-glycosylase/DNA lyase [6]): Active; inhibition (N-glycosylase/DNA lyase [7]): Active; Ratio IC50 (Homo sapiens [11]): > 200; Ratio IC50 (Homo sapiens [12]): > 200; Ratio IC50 [13]: > 200; Activity (N-glycosylase/DNA lyase [22]): 10%; inhibition (N-glycosylase/DNA lyase [25]): inactive; inhibition (N-glycosylase/DNA lyase [26]): Active; inhibition (N-glycosylase/DNA lyase [27]): Active |
| 78.7 | 53.6 | inactive | 88.5 | – | – | – | – | – | – | – | – | – | – | – | – | – | NNC(=O)COc1cccc2ccccc12 | – |
| 101 | 92.6 | inactive | 90.9 | – | – | – | – | – | – | – | – | – | – | – | – | – | CCCC/C(C)=N\NC(=O)c1cccc(Br)c1 | – |
| 84.6 | 63.1 | inactive | 91.7 | > 50 | > 50 | > 50 | inactive | inactive | inactive | inactive | inactive | inactive | inactive | inactive | inactive | inactive | NNC(=O)c1sc2cccc(Cl)c2c1Cl | inhibition (N-glycosylase/DNA lyase [5]): Active; inhibition (N-glycosylase/DNA lyase [6]): Active; inhibition (N-glycosylase/DNA lyase [7]): Active; Ratio IC50 (Homo sapiens [11]): > 200; Ratio IC50 (Homo sapiens [12]): > 200; Ratio IC50 [13]: > 200; Activity (N-glycosylase/DNA lyase [22]): 2%; inhibition (N-glycosylase/DNA lyase [25]): inactive; inhibition (N-glycosylase/DNA lyase [26]): Active; inhibition (N-glycosylase/DNA lyase [27]): Active; IC50 (N-glycosylase/DNA lyase [28]): 1.03 µM; IC50 (N-glycosylase/DNA lyase [29]): 0.74 µM |
| 97.6 | 84.5 | inactive | 91.7 | > 50 | > 50 | > 50 | inactive | inactive | inactive | inactive | inactive | inactive | inactive | inactive | inactive | inactive | O=C(NN=C1CCCCC1)c1ccc(Br)cc1 | – |
| 82.3 | 94.8 | inactive | 87.3 | > 50 | > 50 | > 50 | inactive | inactive | inactive | inactive | inactive | inactive | inactive | inactive | inactive | inactive | CC1CCCC/C1=N/NC(=O)c1sc2ccccc2c1Cl (stereo not drawn) | – |
| 93.5 | 90.6 | inactive | 78.8 | – | – | – | – | – | – | – | – | – | – | – | – | – | C=CCC/C(C)=N\NC(=O)c1cccc(Br)c1 | – |
| 100 | 109 | inactive | – | – | – | – | – | – | – | – | – | – | – | – | – | – | COc1cc(C)c(S(=O)(=O)n2cc(C)nc2-c2ccccc2)cc1C | – |
